Patent US20250129021A1, “SMALL MOLECULE PROTEIN SYNTHESIS MODULATORS” (Interdict Bio, Inc., priority 2023, published 2025)

Tests used:
Assay type in all cases: biochemical
[1] = tested on: MYC; test: In vitro transcription-translation (IVTT) assay, MYC reporter; conditions: IVTT assay, HeLa S3 lysate, MYC reporter, normalized sfGFP/mCherry ratio; half-log dilutions 30 μM-0.1 μM, 2 hrs at 30° C.
How it was run: (§1)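 Reporter: mCherry, P2A, then 3×FLAG-target peptide-sfGFP fusion, IRES-initiated; HeLa S3 lysate IVTT; cpd dilutions 30 μM−0.1 μM half-log in 100% DMSO (dilution-plate conc); DNA added last; 2 h, 30° C; PBS quench.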

[2] = tested on: CCND1; test: In vitro transcription-translation (IVTT) assay, CCND1 reporter; conditions: IVTT, HeLa S3 lysate, 2 hrs at 30° C.
How it was run: as §1

[3] = tested on: MCL-1; test: In vitro transcription-translation (IVTT) assay, MCL-1 reporter; conditions: IVTT, HeLa S3 lysate, 2 hrs at 30° C.; read-out: MCL1 IC50
How it was run: as §1

[4] = tested on: CCNTB1; test: In vitro transcription-translation (IVTT) assay, CCNTB1 reporter; conditions: HeLa S3 lysate, 2 hrs at 30° C.
Protocol: Each preparation takes 8 cell pellets (4 ml packed volume each, approximately 1.0×10^9 cells per pellet). Thaw cell pellets from −80° C. on ice for 90 mins. Lay pellets horizontally on top of the ice and rotate every 30 mins to ensure even thawing. Once thawed, add 4 mL of cold lysis buffer to each pellet, and using a serological pipet, gently pipet up and down to break up clumps. Incubate resuspended cells in ice for an additional 30 mins (plunged into ice). During 30 min incubation, rinse and RNase-zap (Ambion) glass dounces (use loose pestle “A”), gently dry and place on ice until needed. Prepare RNase-free Eppendorf tubes for spinning and for batch storage. Add batch labels to 1.5-1.7 mL RNase-free microcentrifuge tubes (labeling scheme below). Each batch will have an extra 1.5-1.7 mL RNase-free microcentrifuge tube for 40 μL of lysate, label the top of this tube (labeling scheme below). After 30 min incubation, transfer all 8 mL of cell pellet to dounce. Cell lysis is complete after douncing 100 times. Aliquot cell lysis into 1.5-1.7 mL temporary-microcentrifuge tubes. Place tubes in centrifuge with “fins” out, and spin at 1,200×g for 5 mins. After the first spin use a 1 mL pipet to resuspend each tube and repeat spin. This acts as an additional lysis step, is more vigorous and increases lysate yield. During second spin get liquid N2 and a fresh conical tube on ice. After spin is complete, transfer supernatant (lysate) from microcentrifuge tubes into the 50 mL conical tube and keep on ice. Repeat steps 10-14 for all other cell pellets until completed. Once all cell lysate has been transferred to the 50 mL conical tube pipet to mix so the solution is homogenous. Transfer 1 mL of lysate into batch-labeled microcentrifuge tubes and flash freeze in liquid nitrogen. Be sure to pipet up and down to mix throughout transfer step. Place all tubes in the […] for long-term storage.
In vitro transcription-translation assay setup: Each assay includes a master mix containing lysate and shared components, a 96-well plate containing compound titrations for testing, a 96-well DNA plate with reporter constructs to be tested, 96-well skirted PCR plates, and 96-well flat-bottom, black, fluorescent assay plates. Reaction materials setup: (A) Master mix—15 mL conical tube (3 mL of HeLa S3 Lysate described above; 0.6 mL of ThermoFisher Accessory Proteins (#88882); 1.2 ml of ThermoFisher Reaction Mix (#88882); 0.54 mL of nuclease-free Water); (B) 96-Well Master Mix+Compound Plate (Half-log dilutions (30 μM−0.1 μM) of 4 compounds of interest are prepared in 100% DMSO); 96-Well DNA Plate (Five DNA constructs are plated into single columns within the plate. Row 1 of the column contains nuclease free H2O, all other wells contain 110 ng/μL plasmid DNA). Reactions are started by mixing 155 μL of master mix and 3.5 μL of compound serial dilutions, then 9.1 μL of master mix+compound mixture is aliquoted across 5 96-well plates. Reactions begin with final addition of 2 μL of DNA for a 11.1 μL reaction volume in each well. The entire plate is sealed, and incubated for 2 hrs at 30° C. After 2 hrs, quench the assay using 45 μL of PBS, and transfer 50 μL to a flat-bottom black microplate Quantify the sfGFP and mCherry signals from each well on each plate, taking 3 reads of each plate, and perform data analysis below.
In vitro transcription-translation assay data analysis: Each plate is read three times in channels for both sfGFP and mCherry signals. The average signal across these 3 reads is then calculated for further analysis. Control wells containing no DNA reporter are subtracted from reporter wells in the same column to remove auto-fluorescence of the lysate. Then, the ratio of sfGFP/mCherry is calculated per well, and these ratios are averaged across the triplicate experiments on the same plate. Finally, the ratio of each titration concentration is normalized to the no drug control to create the normalized stalling metric. […]

Compound	IC50 [1] [µM]	IC50 [2] [µM]	IC50 [3] [µM]	IC50 [4] [µM]
COc1ccc(C[C@H]2NC[C@H](O)[C@H]2OC(=O)NCc2ccc(C3CCNC3)cc2)cc1 (stereo partly drawn) [V188354, (2R,3S,4S)-4-hydroxy-2-[(4-methoxyphenyl)methyl]pyrrolidin-3-yl N-{[4-(pyrrolidin-3-yl)phenyl]methyl}carbamate]	< 10	< 10	< 10	< 10
COc1ccc(C[C@H]2NC[C@H](O)[C@H]2OC(=O)NCCn2nc(C)cc2C)cc1 [V190415, (2R,3S,4S)-4-hydroxy-2-[(4-methoxyphenyl)methyl]pyrrolidin-3-yl N-[2-(3,5-dimethylpyrazol-1-yl)ethyl]carbamate]	> 30	> 30	> 30	> 30
O=C(NCC1CC1)O[C@@H]1[C@@H](O)CN[C@@H]1Cc1ccc(-c2c[nH]nn2)cc1 [V188327, (2R,3S,4S)-4-hydroxy-2-{[4-(1H−1,2,3-triazol-4-yl)phenyl]methyl}pyrrolidin-3-yl N-(cyclopropylmethyl)carbamate]	< 10	< 10	< 10	< 10
COc1ccc(C[C@H]2NC[C@H](O)[C@H]2OC(=O)NCC(=O)NCC(=O)O)cc1 [V188018, {2-[({[(2R,3S,4S)-4-hydroxy-2-[(4-methoxyphenyl)methyl]pyrrolidin-3-yl]oxy}carbonyl)amino]acetamido}acetic Acid]	10 to 20	> 30	> 30	> 30
COc1ccc(C[C@H]2NC[C@H](O)[C@H]2OC(=O)NC[C@H]2CCN(C)C2)cc1 [V188306]	< 10	< 10	< 10	< 10
COc1ccc(C[C@H]2NC[C@H](O)[C@H]2OC(=O)NCc2ccc(F)c(C#N)c2)cc1 [V188310, (2R,3S,4S)-4-hydroxy-2-[(4-methoxyphenyl)methyl]pyrrolidin-3-yl N-[(3-cyano-4-fluorophenyl)methyl]carbamate]	< 10	< 10	< 10	< 10
COc1ccc(C[C@H]2NC[C@H](O)[C@H]2OC(=O)NC2CC3(CCNC3)C2)cc1 (stereo partly drawn) [V190538, (2R,3S,4S)-4-hydroxy-2-[(4-methoxyphenyl)methyl]pyrrolidin-3-yl N-{6-azaspiro[3.4]octan-2-yl}carbamate]	> 30	> 30	> 30	> 30
COc1ccc(C[C@H]2NC[C@H](O)[C@H]2OC(=O)NCc2cnsc2)cc1 [V188384, (2R,3S,4S)-4-hydroxy-2-[(4-methoxyphenyl)methyl]pyrrolidin-3-yl N-(1,2-thiazol-4-ylmethyl)carbamate]	< 10	< 10	< 10	< 10
COc1ccc(C[C@H]2NC[C@H](O)[C@H]2OC(=O)NCC23CC(C2)C3)cc1 [V188324, (2R,3S,4S)-4-hydroxy-2-[(4-methoxyphenyl)methyl]pyrrolidin-3-yl N-{bicyclo[1.1.1]pentan-1-ylmethyl}carbamate]	10 to 20	10 to 20	10 to 20	< 10
COc1ccc(C[C@H]2NC[C@H](O)[C@H]2OC(=O)NCC[C@H]2CCCN2)cc1 [V188342, (2R,3S,4S)-4-hydroxy-2-[(4-methoxyphenyl)methyl]pyrrolidin-3-yl N-{2-[(2R)-pyrrolidin-2-yl]ethyl}carbamate]	< 10	20 to 30	10 to 20	< 10
COc1ccc(C[C@H]2NC[C@H](O)[C@H]2OC(=O)NCC#Cc2ccccc2)cc1 [V188315, (2R,3S,4S)-4-hydroxy-2-[(4-methoxyphenyl)methyl]pyrrolidin-3-yl N-(3-phenylprop-2-yn-1-yl)carbamate]	10 to 20	20 to 30	< 10	< 10
COc1ccc(C[C@H]2NC[C@H](O)[C@H]2OC(=O)NCc2ccc(C#N)cc2)cc1 [V188377, (2R,3S,4S)-4-hydroxy-2-[(4-methoxyphenyl)methyl]pyrrolidin-3-yl N-[(4-cyanophenyl)methyl]carbamate]	< 10	< 10	< 10	< 10
COc1ccc(C[C@H]2NC[C@H](O)[C@H]2OC(=O)NCCC[C@H]2CCNC2)cc1 [V188340, (2R,3S,4S)-4-hydroxy-2-[(4-methoxyphenyl)methyl]pyrrolidin-3-yl N-{3-[(3S)-pyrrolidin-3-yl]propyl}carbamate]	< 10	10 to 20	< 10	< 10
COc1ccc(C[C@H]2NC[C@H](O)[C@H]2OC(=O)NCc2nnc(C)o2)cc1 [V188303, (2R,3S,4S)-4-hydroxy-2-[(4-methoxyphenyl)methyl]pyrrolidin-3-yl N-[(5-methyl-1,3,4-oxadiazol-2-yl)methyl]carbamate]	< 10	< 10	< 10	< 10
COc1ccc(C[C@H]2NC[C@H](O)[C@H]2OC(=O)NCc2ccnc(F)c2)cc1 [V190522, (2R,3S,4S)-4-hydroxy-2-[(4-methoxyphenyl)methyl]pyrrolidin-3-yl N-[(2-fluoropyridin-4-yl)methyl]carbamate]	< 10	< 10	< 10	< 10
COc1ccc(C[C@H]2NC[C@H](O)[C@H]2OC(=O)NCC2(F)CC2)cc1 [V188381, (2R,3S,4S)-4-hydroxy-2-[(4-methoxyphenyl)methyl]pyrrolidin-3-yl N-[(1-fluorocyclopropyl)methyl]carbamate]	< 10	10 to 20	< 10	< 10
COc1ccc(C[C@H]2NC[C@H](O)[C@H]2OC(=O)NCC23CC(N)(C2)C3)cc1 [V188323, (2R,3S,4S)-4-hydroxy-2-[(4-methoxyphenyl)methyl]pyrrolidin-3-yl N-({3-aminobicyclo[1.1.1]pentan-1-yl}methyl)carbamate]	10 to 20	20 to 30	20 to 30	< 10
COc1ccc(C[C@H]2NC[C@H](O)[C@H]2OC(=O)NCc2ccc(C3CCCN3)cc2)cc1 (stereo partly drawn) [V188355, (2R,3S,4S)-4-hydroxy-2-[(4-methoxyphenyl)methyl]pyrrolidin-3-yl N-{[4-(pyrrolidin-2-yl)phenyl]methyl}carbamate]	< 10	< 10	< 10	< 10
O=C(NCc1cccc(F)c1)O[C@@H]1[C@@H](O)CN[C@@H]1Cc1ccc(-c2cscn2)cc1 [V190511, (2R,3S,4S)-4-hydroxy-2-{[4-(1,3-thiazol-4-yl)phenyl]methyl}pyrrolidin-3-yl N-[(3-fluorophenyl)methyl]carbamate]	< 10	< 10	< 10	< 10
CCCOc1ccc(C[C@H]2NC[C@H](O)[C@H]2OC(=O)NCc2ccccc2)cc1 [V188376, (2R,3S,4S)-4-hydroxy-2-[(4-propoxyphenyl)methyl]pyrrolidin-3-yl N-benzylcarbamate]	< 10	10 to 20	< 10	< 10
